# From PubChem BioAssay (NCI)
#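 GI50 marks 50% less growth. Definition used: TGI = concentration required for complete inhibition of growth.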
# Tests used:
# Experiment in all cases: inhibition of tumour cell growth, NCI panel, 384-well format
# UACC-62 melanoma = system: UACC-62 melanoma
# COLO 205 colon = system: COLO 205 colon
# KM12 colon = system: KM12 colon
# A549 NSCLC = system: A549 NSCLC
# BT-549 breast = system: BT-549 breast
# SF-268 CNS = system: SF-268 CNS
# NCI-H322M lung = system: NCI-H322M lung
# HCC-2998 colon = system: HCC-2998 colon
# OVCAR-3 ovarian = system: OVCAR-3 ovarian
# SW-620 colon = system: SW-620 colon
# MDA-MB-468 breast = system: MDA-MB-468 breast
# A498 renal = system: A498 renal
# NCI-H522 lung = system: NCI-H522 lung
# CAKI-1 renal = system: CAKI-1 renal
# 786-0 renal = system: 786-0 renal
# NCI-H226 lung = system: NCI-H226 lung
# T-47D breast = system: T-47D breast
# SNB-19 CNS = system: SNB-19 CNS
# UO-31 renal = system: UO-31 renal
# HOP-62 NSCLC = system: HOP-62 NSCLC
# SR leukemia = system: SR leukemia
# M14 melanoma = system: M14 melanoma
# U251 glioblastoma = system: U251 glioblastoma
# RPMI-8226 leukemia = system: RPMI-8226 leukemia
# UACC-257 melanoma = system: UACC-257 melanoma
# IGROV1 ovarian = system: IGROV1 ovarian
# SN12C renal = system: SN12C renal
# HT29 colon = system: HT29 colon
# LOX IMVI melanoma = system: LOX IMVI melanoma
# SK-MEL-5 melanoma = system: SK-MEL-5 melanoma
# SF-295 CNS = system: SF-295 CNS
# NCI-H460 NSCLC = system: NCI-H460 NSCLC
# ACHN renal = system: ACHN renal
# SK-MEL-2 melanoma = system: SK-MEL-2 melanoma
# MCF7 breast = system: MCF7 breast
# OVCAR-4 ovarian = system: OVCAR-4 ovarian
# HOP-92 NSCLC = system: HOP-92 NSCLC
# DU-145 prostate = system: DU-145 prostate
# TK-10 renal = system: TK-10 renal
# MOLT-4 leukemia = system: MOLT-4 leukemia
# MDA-MB-231 breast = system: MDA-MB-231 breast
# SK-MEL-28 melanoma = system: SK-MEL-28 melanoma
# NCI-H23 lung = system: NCI-H23 lung
# SF-539 CNS = system: SF-539 CNS
# HL-60(TB) leukemia = system: HL-60(TB) leukemia
# SK-OV-3 ovarian = system: SK-OV-3 ovarian
# HCT-15 colon = system: HCT-15 colon
# RXF 393 renal = system: RXF 393 renal
# K-562 leukemia = system: K-562 leukemia
# PC-3 prostate = system: PC-3 prostate
# OVCAR-8 ovarian = system: OVCAR-8 ovarian
# MDA-MB-435 melanoma = system: MDA-MB-435 melanoma
# MALME-3M melanoma = system: MALME-3M melanoma
# NCI/ADR-RES ovarian = system: NCI/ADR-RES ovarian
# OVCAR-5 ovarian = system: OVCAR-5 ovarian
# CCRF-CEM leukemia = system: CCRF-CEM leukemia
# HCT-116 colon = system: HCT-116 colon
compound,measurement,setting,value
COc1cc(F)cc([C@@H](CO)NC(=O)[C@@H](C)N2Cc3ccc(-c4nc(NC5CCOCC5)ncc4Cl)cc3C2=O)c1,GI50,UACC-62 melanoma,< 10 nM
same,TGI,UACC-62 melanoma,42.7 nM
same,GI50,COLO 205 colon,< 10 nM
same,TGI,COLO 205 colon,24.6 nM
same,GI50,KM12 colon,46.5 nM
same,TGI,KM12 colon,16.4 µM
same,GI50,A549 NSCLC,45.7 nM
same,TGI,A549 NSCLC,17.3 µM
same,GI50,BT-549 breast,11.4 µM
same,TGI,BT-549 breast,23.8 µM
same,GI50,SF-268 CNS,25.5 µM
same,TGI,SF-268 CNS,79.5 µM
same,GI50,NCI-H322M lung,72.2 nM
same,TGI,NCI-H322M lung,25.8 µM
same,GI50,HCC-2998 colon,< 10 nM
same,TGI,HCC-2998 colon,40.8 nM
same,GI50,OVCAR-3 ovarian,13.9 µM
same,TGI,OVCAR-3 ovarian,33.3 µM
same,GI50,SW-620 colon,13.2 nM
same,TGI,SW-620 colon,19.3 µM
same,GI50,MDA-MB-468 breast,325 nM
same,TGI,MDA-MB-468 breast,10 µM
same,GI50,A498 renal,10.4 µM
same,TGI,A498 renal,36.1 µM
same,GI50,NCI-H522 lung,11.3 µM
same,TGI,NCI-H522 lung,27.4 µM
same,GI50,CAKI-1 renal,96 nM
same,TGI,CAKI-1 renal,33.3 µM
same,GI50,786-0 renal,11.3 µM
same,TGI,786-0 renal,34.1 µM
same,GI50,NCI-H226 lung,214 nM
same,TGI,NCI-H226 lung,16.1 µM
same,GI50,T-47D breast,11.7 µM
same,TGI,T-47D breast,24.1 µM
same,GI50,SNB-19 CNS,11 µM
same,TGI,SNB-19 CNS,> 100 µM
same,GI50,UO-31 renal,578 nM
same,TGI,UO-31 renal,20.1 µM
same,GI50,HOP-62 NSCLC,218 nM
same,TGI,HOP-62 NSCLC,25.9 µM
same,GI50,SR leukemia,499 nM
same,TGI,SR leukemia,14.7 µM
same,GI50,M14 melanoma,< 10 nM
same,TGI,M14 melanoma,13.8 nM
same,GI50,U251 glioblastoma,460 nM
same,TGI,U251 glioblastoma,42.7 µM
same,GI50,RPMI-8226 leukemia,224 nM
same,TGI,RPMI-8226 leukemia,5.09 µM
same,GI50,UACC-257 melanoma,< 10 nM
same,TGI,UACC-257 melanoma,20.9 nM
same,GI50,IGROV1 ovarian,145 nM
same,TGI,IGROV1 ovarian,12.6 µM
same,GI50,SN12C renal,16.6 µM
same,TGI,SN12C renal,85.4 µM
same,GI50,HT29 colon,< 10 nM
same,TGI,HT29 colon,13.4 µM
same,GI50,LOX IMVI melanoma,13.4 nM
same,TGI,LOX IMVI melanoma,67.1 nM
same,GI50,SK-MEL-5 melanoma,18.1 nM
same,TGI,SK-MEL-5 melanoma,12.1 µM
same,GI50,SF-295 CNS,15.2 µM
same,TGI,SF-295 CNS,43 µM
same,GI50,NCI-H460 NSCLC,1120 nM
same,TGI,NCI-H460 NSCLC,31.3 µM
same,GI50,ACHN renal,5.8 µM
same,TGI,ACHN renal,60.8 µM
same,GI50,SK-MEL-2 melanoma,< 10 nM
same,TGI,SK-MEL-2 melanoma,31.2 nM
same,GI50,MCF7 breast,16.5 µM
same,TGI,MCF7 breast,31.9 µM
same,GI50,OVCAR-4 ovarian,13.2 µM
same,TGI,OVCAR-4 ovarian,39.3 µM
same,GI50,HOP-92 NSCLC,24.9 nM
same,TGI,HOP-92 NSCLC,162 nM
same,GI50,DU-145 prostate,11.3 µM
same,TGI,DU-145 prostate,38.7 µM
same,GI50,TK-10 renal,821 nM
same,TGI,TK-10 renal,40.3 µM
same,GI50,MOLT-4 leukemia,7.8 µM
same,TGI,MOLT-4 leukemia,20.2 µM
same,GI50,MDA-MB-231 breast,85.4 nM
same,TGI,MDA-MB-231 breast,19.1 µM
same,GI50,SK-MEL-28 melanoma,< 10 nM
same,TGI,SK-MEL-28 melanoma,< 10 nM
same,GI50,NCI-H23 lung,< 10 nM
same,TGI,NCI-H23 lung,22.1 nM
same,GI50,SF-539 CNS,382 nM
same,TGI,SF-539 CNS,15.6 µM
same,GI50,HL-60(TB) leukemia,< 10 nM
same,TGI,HL-60(TB) leukemia,42.9 nM
same,GI50,SK-OV-3 ovarian,6.75 µM
same,TGI,SK-OV-3 ovarian,63.2 µM
same,GI50,HCT-15 colon,14.4 µM
same,TGI,HCT-15 colon,75.6 µM
same,GI50,RXF 393 renal,441 nM
same,TGI,RXF 393 renal,16.9 µM
same,GI50,K-562 leukemia,409 nM
same,TGI,K-562 leukemia,19 µM
same,GI50,PC-3 prostate,18.3 µM
same,TGI,PC-3 prostate,36.2 µM
same,GI50,OVCAR-8 ovarian,12.4 µM
same,TGI,OVCAR-8 ovarian,28.2 µM
same,GI50,MDA-MB-435 melanoma,10.3 nM
same,TGI,MDA-MB-435 melanoma,20.1 µM
same,GI50,MALME-3M melanoma,< 10 nM
same,TGI,MALME-3M melanoma,< 10 nM
same,GI50,NCI/ADR-RES ovarian,14.7 µM
same,TGI,NCI/ADR-RES ovarian,31.9 µM
same,GI50,OVCAR-5 ovarian,10.2 nM
same,TGI,OVCAR-5 ovarian,> 100 µM
same,GI50,CCRF-CEM leukemia,11.7 µM
same,TGI,CCRF-CEM leukemia,24.7 µM
same,GI50,HCT-116 colon,13.7 nM
same,TGI,HCT-116 colon,201 nM
